How the values were obtained:
MET = target: T1, MET (Homo sapiens, UniProt P08581); test: MET Mobility Shift Assay; conditions: biochemical assay IC50; 100 μM ATP, 60 minute kinase reaction
T1 construct: purchased Carna Biosciences 08-151
Summary of the method: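 IC50s come from inhibition of substrate-to-phosphopeptide conversion, read by electrophoretic mobility shift. Reaction: 100 μM ATP, 1.5 μM 5-FAM peptide, 0.625 nM MET, 10 mM MgCl2, 60 min, after a 30 min room-temperature enzyme pre-incubation, quenched with EDTA.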

MET D1228N = target: T2, MET D1228N (Homo sapiens, UniProt P08581, D1228N); test: MET D1228N Mobility Shift Assay; conditions: biochemical assay IC50; 100 μM ATP, 60 minute kinase reaction
T2 construct: purchased Signalchem M52-12IG
Summary of the method: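 Microfluidic electrophoresis quantified phosphorylated versus unphosphorylated 5-FAM-KKKKEEIYFFF peptide (1.5 μM) after a 60 min reaction with 100 μM ATP. MET D1228N (0.313 nM) in 50 mM HEPES, 10 mM MgCl2, 2 mM DTT was preincubated 30 min; IC50 fitted to conversion inhibition.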

Ba/F3-TPR-MET cells = target: T3, Ba/F3-TPR-MET cells (Homo sapiens, UniProt P08581); test: CellTiter-Glo Cell Viability Assay, Ba/F3-TPR-MET; type: cell-based; conditions: 72 hours
T3 construct: fused on or other part: P12270 (Nucleoprotein TPR)
Summary of the method: (§1)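 IC50 values come from curve-fitted luminescence. Viable-cell ATP was read by CellTiter-Glo 2.0 after a 72 h, 37 °C incubation of 3000 TPR-MET or D1228N-mutant Ba/F3 cells per well. Compounds were tested as a 9-point, 3-fold series with 0.1% DMSO final.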

[1] = target: T4, Ba/F3-TPR-MET-D1228N cells (Homo sapiens, UniProt P08581, D1228N, cells depend on it); test: CellTiter-Glo Cell Viability Assay, Ba/F3-TPR-MET-D1228N; type: cell-based; conditions: 72 hours
T4 construct: fused on or other part: P12270 (Nucleoprotein TPR)
Summary of the method: as §1

T3 sequence (P08581 whole entry, change not shown, the tested form may be a part): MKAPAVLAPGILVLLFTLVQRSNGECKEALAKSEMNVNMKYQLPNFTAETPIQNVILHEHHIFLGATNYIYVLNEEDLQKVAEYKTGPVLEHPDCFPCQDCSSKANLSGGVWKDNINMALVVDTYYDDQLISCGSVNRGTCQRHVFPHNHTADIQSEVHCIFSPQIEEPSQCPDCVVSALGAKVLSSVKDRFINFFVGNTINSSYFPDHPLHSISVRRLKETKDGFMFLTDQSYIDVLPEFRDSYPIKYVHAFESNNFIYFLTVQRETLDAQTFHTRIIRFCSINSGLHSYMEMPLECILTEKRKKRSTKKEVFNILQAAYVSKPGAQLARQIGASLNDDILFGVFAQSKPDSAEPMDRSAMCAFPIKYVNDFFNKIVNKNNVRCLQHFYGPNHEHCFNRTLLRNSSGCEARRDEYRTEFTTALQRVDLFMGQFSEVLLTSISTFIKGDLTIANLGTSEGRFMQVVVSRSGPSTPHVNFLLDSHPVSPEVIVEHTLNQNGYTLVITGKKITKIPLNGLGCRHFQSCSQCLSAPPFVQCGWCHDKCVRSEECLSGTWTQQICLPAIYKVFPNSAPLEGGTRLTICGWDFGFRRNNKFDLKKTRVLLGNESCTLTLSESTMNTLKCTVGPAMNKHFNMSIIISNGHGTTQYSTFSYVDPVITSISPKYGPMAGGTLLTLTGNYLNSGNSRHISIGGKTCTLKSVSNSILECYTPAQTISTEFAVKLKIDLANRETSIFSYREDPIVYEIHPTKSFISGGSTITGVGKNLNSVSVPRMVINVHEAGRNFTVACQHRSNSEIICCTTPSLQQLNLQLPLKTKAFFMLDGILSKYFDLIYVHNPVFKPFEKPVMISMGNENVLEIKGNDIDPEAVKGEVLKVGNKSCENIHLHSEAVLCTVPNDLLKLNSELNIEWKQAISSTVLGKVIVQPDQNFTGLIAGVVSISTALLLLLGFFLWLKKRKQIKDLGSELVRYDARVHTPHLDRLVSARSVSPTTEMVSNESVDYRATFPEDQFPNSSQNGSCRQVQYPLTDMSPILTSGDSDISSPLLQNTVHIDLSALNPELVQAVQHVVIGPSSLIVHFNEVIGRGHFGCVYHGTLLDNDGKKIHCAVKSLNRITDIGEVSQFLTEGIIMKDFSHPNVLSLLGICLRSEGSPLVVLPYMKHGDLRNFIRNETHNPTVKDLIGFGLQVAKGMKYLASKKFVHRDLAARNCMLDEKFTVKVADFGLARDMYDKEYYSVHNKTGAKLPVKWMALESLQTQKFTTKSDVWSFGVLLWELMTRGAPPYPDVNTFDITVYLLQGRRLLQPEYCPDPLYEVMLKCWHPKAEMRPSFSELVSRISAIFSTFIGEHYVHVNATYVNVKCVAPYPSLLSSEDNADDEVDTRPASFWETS
T1 sequence (P08581 25-1390): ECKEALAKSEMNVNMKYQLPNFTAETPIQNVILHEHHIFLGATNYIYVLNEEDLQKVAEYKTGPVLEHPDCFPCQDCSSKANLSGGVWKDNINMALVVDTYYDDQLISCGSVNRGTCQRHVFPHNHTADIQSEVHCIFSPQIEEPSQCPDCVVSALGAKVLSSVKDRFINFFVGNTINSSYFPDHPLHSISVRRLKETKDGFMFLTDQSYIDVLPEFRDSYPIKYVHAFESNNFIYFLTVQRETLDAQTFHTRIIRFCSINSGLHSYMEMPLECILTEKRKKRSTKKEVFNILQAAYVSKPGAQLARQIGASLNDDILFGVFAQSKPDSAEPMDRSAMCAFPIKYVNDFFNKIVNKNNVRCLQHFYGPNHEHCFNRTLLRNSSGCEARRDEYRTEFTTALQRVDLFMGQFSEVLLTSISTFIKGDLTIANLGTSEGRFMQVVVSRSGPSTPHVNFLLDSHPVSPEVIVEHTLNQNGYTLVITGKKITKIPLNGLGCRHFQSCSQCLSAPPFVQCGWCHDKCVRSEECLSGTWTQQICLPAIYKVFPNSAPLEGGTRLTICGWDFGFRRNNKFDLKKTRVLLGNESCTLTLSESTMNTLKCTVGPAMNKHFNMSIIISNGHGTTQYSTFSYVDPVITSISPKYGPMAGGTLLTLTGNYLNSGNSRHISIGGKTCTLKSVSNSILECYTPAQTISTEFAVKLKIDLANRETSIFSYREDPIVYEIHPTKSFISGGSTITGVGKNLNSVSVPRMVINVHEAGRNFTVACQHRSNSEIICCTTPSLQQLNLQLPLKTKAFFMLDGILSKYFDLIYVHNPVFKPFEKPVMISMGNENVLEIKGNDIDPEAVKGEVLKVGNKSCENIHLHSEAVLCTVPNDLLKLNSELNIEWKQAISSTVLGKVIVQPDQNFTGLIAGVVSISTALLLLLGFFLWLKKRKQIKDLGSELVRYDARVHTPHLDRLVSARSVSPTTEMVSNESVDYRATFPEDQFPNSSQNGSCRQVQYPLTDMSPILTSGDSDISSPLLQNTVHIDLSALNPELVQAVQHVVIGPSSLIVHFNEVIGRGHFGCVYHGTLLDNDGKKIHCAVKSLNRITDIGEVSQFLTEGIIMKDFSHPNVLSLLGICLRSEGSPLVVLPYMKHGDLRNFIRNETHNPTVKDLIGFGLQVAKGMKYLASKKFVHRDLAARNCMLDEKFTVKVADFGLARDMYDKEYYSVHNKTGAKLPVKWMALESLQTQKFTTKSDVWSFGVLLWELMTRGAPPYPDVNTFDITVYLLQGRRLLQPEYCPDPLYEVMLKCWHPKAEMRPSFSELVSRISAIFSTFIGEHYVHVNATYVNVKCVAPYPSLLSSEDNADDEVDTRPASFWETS
T4 sequence (P08581 whole entry D1228N, the tested form may be a part): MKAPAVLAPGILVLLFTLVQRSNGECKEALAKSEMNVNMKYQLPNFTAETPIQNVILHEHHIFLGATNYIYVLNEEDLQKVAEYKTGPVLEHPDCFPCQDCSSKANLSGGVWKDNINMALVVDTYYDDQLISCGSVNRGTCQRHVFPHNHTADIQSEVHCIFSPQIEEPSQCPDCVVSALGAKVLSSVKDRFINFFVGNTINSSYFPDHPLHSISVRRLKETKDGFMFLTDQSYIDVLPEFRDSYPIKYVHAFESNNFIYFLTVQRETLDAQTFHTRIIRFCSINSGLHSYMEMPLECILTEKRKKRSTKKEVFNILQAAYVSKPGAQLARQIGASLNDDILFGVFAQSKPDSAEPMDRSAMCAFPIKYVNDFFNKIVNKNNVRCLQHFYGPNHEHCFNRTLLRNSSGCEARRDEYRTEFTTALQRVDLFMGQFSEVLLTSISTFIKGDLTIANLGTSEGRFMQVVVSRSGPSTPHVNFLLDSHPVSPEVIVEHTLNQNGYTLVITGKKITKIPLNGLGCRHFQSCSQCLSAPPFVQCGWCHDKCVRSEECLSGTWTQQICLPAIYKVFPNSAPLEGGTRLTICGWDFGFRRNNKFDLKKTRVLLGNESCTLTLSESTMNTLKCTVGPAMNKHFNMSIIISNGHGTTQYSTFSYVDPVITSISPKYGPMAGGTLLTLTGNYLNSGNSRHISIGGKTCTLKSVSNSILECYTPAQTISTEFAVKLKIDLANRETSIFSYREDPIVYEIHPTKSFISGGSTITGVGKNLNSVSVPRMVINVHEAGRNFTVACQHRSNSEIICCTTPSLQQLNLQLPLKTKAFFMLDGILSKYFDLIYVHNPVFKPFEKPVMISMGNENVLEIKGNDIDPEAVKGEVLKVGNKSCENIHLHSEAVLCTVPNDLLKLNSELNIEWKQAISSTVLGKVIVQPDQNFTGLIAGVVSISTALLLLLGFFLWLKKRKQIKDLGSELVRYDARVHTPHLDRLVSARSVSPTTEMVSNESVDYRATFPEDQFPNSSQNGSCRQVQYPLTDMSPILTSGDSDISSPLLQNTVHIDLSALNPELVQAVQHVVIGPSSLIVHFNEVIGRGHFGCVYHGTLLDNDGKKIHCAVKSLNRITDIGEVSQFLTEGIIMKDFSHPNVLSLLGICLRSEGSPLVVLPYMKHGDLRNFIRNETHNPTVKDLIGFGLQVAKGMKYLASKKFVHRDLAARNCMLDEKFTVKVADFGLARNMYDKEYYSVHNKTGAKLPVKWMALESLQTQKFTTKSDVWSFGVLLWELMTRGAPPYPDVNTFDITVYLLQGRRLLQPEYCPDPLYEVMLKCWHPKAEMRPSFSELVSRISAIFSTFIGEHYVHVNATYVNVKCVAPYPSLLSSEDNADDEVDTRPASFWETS

IC50 (MET) [nM]	IC50 (MET D1228N) [nM]	SMILES	EC50 (Ba/F3-TPR-MET cells) [nM]	EC50 [1] [nM]
≤ 100	≤ 100	CCCOc1ccncc1C(=O)Nc1ccc(Oc2ccnc3cc(OCCNC)c(OC)cc23)c(F)c1F [Example 82, N-[2,3-difluoro-4-({6-methoxy-7-[2-(methylamino)ethoxy]quinolin-4-yl}oxy)phenyl]-4-propoxypyridine-3-carboxamide]	100 to 1000	100 to 1000
≤ 100	≤ 100	COc1cc2nccc(Oc3c(F)cc(NC(=O)c4cnccc4OC)c(F)c3F)c2cc1O[C@@H](C)CO [Example 133, (S)-4-methoxy-N-(2,3,5-trifluoro-4-((6-((1-hydroxypropan-2-yl)oxy)-7-methoxyquinolin-4-yl)oxy)phenyl)nicotinamide]	≤ 100	≤ 100
≤ 100	≤ 100	CNCCOc1cc2nccc(Oc3c(F)cc(NC(=O)c4c(OC)ccnc4F)cc3F)c2cc1OC [Example 4, N-(3,5-difluoro-4-((6-methoxy-7-(2-(methylamino)ethoxy)quinolin-4-yl)oxy)phenyl)-2-fluoro-4-methoxypyridine-3-carboxamide]	100 to 1000	100 to 1000
≤ 100	≤ 100	O=C(Nc1cc(F)c(Oc2ccnc3cc(OC4CNC4)ccc23)c(F)c1)c1cnccc1OC1CC1 [Example 89, N-(4-{[7-(azetidin-3-yloxy)quinolin-4-yl]oxy}-3,5-difluorophenyl)-4-cyclopropoxypyridine-3-carboxamide]	100 to 1000	100 to 1000
≤ 100	≤ 100	CNCCOc1cc2ncnc(Oc3c(F)cc(NC(=O)c4c(OC)ccnc4F)cc3F)c2cc1OC [Example 7, N-(3,5-difluoro-4-((6-methoxy-7-(2-(methylamino)ethoxy)quinazolin-4-yl)oxy)phenyl)-2-fluoro-4-methoxypyridine-3-carboxamide]	1000 to 10000	100 to 1000
≤ 100	≤ 100	COc1cc2nccc(Oc3c(F)cc(NC(=O)c4cnccc4OC)cc3F)c2cc1O[C@@H](C)CO [Example 126, (S)-N-(3,5-difluoro-4-{[6-((1-hydroxypropan-2-yl)oxy)-7-methoxyquinolin-4-yl]oxy}phenyl)-4-methoxypyridine-3-carboxamide]	≤ 100	≤ 100
≤ 100	≤ 100	COc1cc2c(Oc3c(F)cc(NC(=O)c4ccccc4F)cc3F)ccnc2cc1OCCO [Example 134, N-(3,5-difluoro-4-((7-(2-hydroxyethoxy)-6-methoxyquinolin-4-yl)oxy)phenyl)-2-fluorobenzamide]	≤ 100	≤ 100
≤ 100	≤ 100	COc1cc2nccc(Oc3c(F)cc(NC(=O)c4cnccc4OC4CC4)cc3F)c2cn1 [Example 96, 4-cyclopropoxy-N-{3,5-difluoro-4-[(7-methoxy-1,6-naphthyridin-4-yl)oxy]phenyl}pyridine-3-carboxamide]	100 to 1000	100 to 1000
≤ 100	≤ 100	CNCCOc1cc2nccc(Oc3c(F)cc(NC(=O)c4cnccc4OC)cc3F)c2cc1OC [Example 1, N-(3,5-difluoro-4-((6-methoxy-7-(2-(methylamino)ethoxy)quinolin-4-yl)oxy)phenyl)-4-methoxypyridine-3-carboxamide]	≤ 100	≤ 100
≤ 100	≤ 100	COc1cc2c(Oc3c(F)cc(NC(=O)c4cnccc4OC4CC4)cc3F)ccnc2cc1OCCO [Example 97, 4-cyclopropoxy-N-(3,5-difluoro-4-{[7-(2-hydroxyethoxy)-6-methoxyquinolin-4-yl]oxy}phenyl)pyridine-3-carboxamide]	≤ 100	≤ 100
≤ 100	≤ 100	CNCCOc1cc2nccc(Oc3c(F)cc(NC(=O)c4cnccc4OC)c(F)c3F)c2cc1OC [Example 50, 4-methoxy-N-(2,3,5-trifluoro-4-((6-methoxy-7-(2-(methylamino)ethoxy)quinolin-4-yl)oxy)phenyl)pyridine-3-carboxamide]	≤ 100	≤ 100
≤ 100	≤ 100	CCOc1ccncc1C(=O)Nc1cc(F)c(Oc2ccnc3cc(OCCCN4CCOCC4)c(OC)cc23)c(F)c1 [Example 28, N-(3,5-difluoro-4-((6-methoxy-7-(3-morpholinopropoxy)quinolin-4-yl)oxy)phenyl)-4-ethoxypyridine-3-carboxamide]	≤ 100	≤ 100
≤ 100	≤ 100	COc1cc2nccc(Oc3c(F)cc(NC(=O)c4cnccc4OC4CC4)c(F)c3F)c2cc1OC [Example 92, 4-cyclopropoxy-N-{4-[(6,7-dimethoxyquinolin-4-yl)oxy]-2,3,5-trifluorophenyl}pyridine-3-carboxamide]	100 to 1000	100 to 1000
≤ 100	≤ 100	CNCCOc1ccc2c(Oc3c(F)cc(NC(=O)c4cnccc4OC)cc3F)ccnc2c1 [Example 10, N-(3,5-difluoro-4-((7-(2-(methylamino)ethoxy)quinolin-4-yl)oxy)phenyl)-4-methoxypyridine-3-carboxamide]	≤ 100	≤ 100
≤ 100	≤ 100	CNCCCOc1cc2nccc(Oc3cc(F)c(NC(=O)c4cnccc4OC)cc3F)c2cc1OC [Example 22, N-[2,5-difluoro-4-({6-methoxy-7-[3-(methylamino)propoxy]quinolin-4-yl}oxy)phenyl]-4-methoxypyridine-3-carboxamide]	100 to 1000	100 to 1000
≤ 100	≤ 100	CNCCOc1cc2nccc(Oc3c(F)cc(NC(=O)c4cnccc4OCC(C)(C)O)cc3F)c2cc1OC [Example 66, N-(3,5-difluoro-4-((6-methoxy-7-(2-(methylamino)ethoxy)quinolin-4-yl)oxy)phenyl)-4-(2-hydroxy-2-methylpropoxy)pyridine-3-carboxamide]	100 to 1000	100 to 1000
≤ 100	≤ 100	CNCCOc1cc2nccc(Oc3c(F)cc(NC(=O)c4cnc(Cl)cc4OC)cc3F)c2cc1OC [Example 3, 6-chloro-N-(3,5-difluoro-4-((6-methoxy-7-(2-(methylamino)ethoxy)quinolin-4-yl)oxy)phenyl)-4-methoxypyridine-3-carboxamide]	≤ 100	100 to 1000
≤ 100	≤ 100	COc1cc2c(Oc3cc(F)c(NC(=O)c4cnc(N)cc4OC)cc3F)ccnc2cc1OCCCN1CCOCC1 [Example 31, 6-amino-N-(2,5-difluoro-4-((6-methoxy-7-(3-morpholinopropoxy)quinolin-4-yl)oxy)phenyl)-4-methoxypyridine-3-carboxamide]	100 to 1000	100 to 1000
≤ 100	≤ 100	COc1cc2c(Oc3c(F)cc(NC(=O)c4cnccc4OC4CC4)cc3F)ccnc2cc1OC1CNC1 [Example 74, N-(4-{[7-(azetidin-3-yloxy)-6-methoxyquinolin-4-yl]oxy}-3,5-difluorophenyl)-4-cyclopropoxypyridine-3-carboxamide]	100 to 1000	100 to 1000
≤ 100	≤ 100	COc1cc2c(Oc3c(F)cc(NC(=O)c4cnccc4OC4CC4)cc3F)ccnc2cc1OCCCN1CCOCC1 [Example 53, 4-cyclopropoxy-N-[3,5-difluoro-4-({6-methoxy-7-[3-(morpholin-4-yl)propoxy]quinolin-4-yl}oxy)phenyl]pyridine-3-carboxamide]	≤ 100	≤ 100
≤ 100	≤ 100	COCCOc1cc2nccc(Oc3c(F)cc(NC(=O)c4cnccc4OC)cc3F)c2cc1OCCOC [Example 43, N-(4-((6,7-bis(2-methoxyethoxy)quinolin-4-yl)oxy)-3,5-difluorophenyl)-4-methoxypyridine-3-carboxamide]	≤ 100	≤ 100
≤ 100	≤ 100	COc1cc2nccc(Oc3c(F)cc(NC(=O)c4cnccc4OC)cc3F)c2cc1OC[C@H](C)O [Example 123, (S)-N-(3,5-difluoro-4-{[6-(2-hydroxypropoxy)-7-methoxyquinolin-4-yl]oxy}phenyl)-4-methoxypyridine-3-carboxamide]	≤ 100	≤ 100

SMILES	IC50 (MET) [nM]	IC50 (MET D1228N) [nM]	EC50 (Ba/F3-TPR-MET cells) [nM]	EC50 [1] [nM]
CNCCOc1cc2nccc(Oc3c(F)cc(NC(=O)c4cnccc4OC4CC(F)(F)C4)cc3F)c2cc1OC [Example 57, N-[3,5-difluoro-4-({6-methoxy-7-[2-(methylamino)ethoxy]quinolin-4-yl}oxy)phenyl]-4-(3,3-difluorocyclobutoxy)pyridine-3-carboxamide]	≤ 100	≤ 100	100 to 1000	100 to 1000
CNCCCOc1cc2nccc(Oc3c(F)cc(NC(=O)c4cnccc4OC4CCC4)cc3F)c2cc1OC [Example 85, 4-cyclobutoxy-N-(3,5-difluoro-4-((6-methoxy-7-(3-(methylamino)propoxy)quinolin-4-yl)oxy)phenyl)pyridine-3-carboxamide]	≤ 100	≤ 100	100 to 1000	100 to 1000

Reference: patent US11753395B2 (Kinnate Biopharma Inc., priority 2021, dated 2023)
